Data as given in the NIST ThermoML archive (doi:10.1016/j.jct.2016.04.021).

Settings: for viscosity / mass density: 101.33 kPa, Liquid; for viscosity: Concentric cylinders viscometry; for mass density: Vibrating tube method; for Glass transition temperature: DSC; for Normal melting temperature: Crystal, DTA

CCCCC(CC)CCC(=O)[O-].CCCCCCCC[N+](C)(CCCCCCCC)CCCCCCCC [methyltrioctylammonium 4-ethyloctanoate]
Settings	Glass transition temperature [°C]	mass density [kg/m3]	viscosity [mPa·s]
–	-76.6	–	–
293.15 K	–	893.1	5743.4
298.15 K	–	890.1	3733.4
303.15 K	–	887.1	2468.1
308.15 K	–	884	1672.3
313.15 K	–	881	1159.3
318.15 K	–	877.9	820.4
323.15 K	–	874.9	592.1
328.15 K	–	871.8	434.7
333.15 K	–	868.8	324.9
338.15 K	–	865.8	246.3
343.15 K	–	862.8	189.2
348.15 K	–	859.8	147.4
353.15 K	–	856.8	116.1
358.15 K	–	853.9	92.4
363.15 K	–	850.9	74.1

CCCCCCCC/C=C\CCCCCCCC(=O)[O-].CCCCCCCC[N+](C)(CCCCCCCC)CCCCCCCC [methyltrioctylammonium oleate]
Settings	Glass transition temperature [°C]	Normal melting temperature [°C]	mass density [kg/m3]	viscosity [mPa·s]
–	-56.3	-5.9	–	–
293.15 K	–	–	890.5	2934
298.15 K	–	–	887.5	1971.4
303.15 K	–	–	884.5	1354.6
308.15 K	–	–	881.5	957.7
313.15 K	–	–	878.5	692.7
318.15 K	–	–	875.5	511.3
323.15 K	–	–	872.5	384.4
328.15 K	–	–	869.5	293.8
333.15 K	–	–	866.6	227.9
338.15 K	–	–	863.6	179.2
343.15 K	–	–	860.7	142.7
348.15 K	–	–	857.8	114.3
353.15 K	–	–	854.9	92.3
358.15 K	–	–	852	74.9
363.15 K	–	–	849.1	61.8

CCCCCCCC/C=C\CCCCCCCC(=O)[O-].CCCCCC[N+](CCCCCC)(CCCCCC)CCCCCC [tetrahexylammonium oleate]
Settings	Glass transition temperature [°C]	mass density [kg/m3]	viscosity [mPa·s]
–	-83.2	–	–
293.15 K	–	889.9	2509.9
298.15 K	–	886.9	1623.7
303.15 K	–	883.9	1086.6
308.15 K	–	880.9	749
313.15 K	–	877.8	530.9
318.15 K	–	874.8	384.9
323.15 K	–	871.8	285.3
328.15 K	–	868.8	215.5
333.15 K	–	865.8	165.4
338.15 K	–	862.9	129.5
343.15 K	–	859.9	102.9
348.15 K	–	857	82.8
353.15 K	–	854	67.5
358.15 K	–	851	55.5
363.15 K	–	847.9	45.5

CCCCCCCC/C=C\CCCCCCCC(=O)[O-].CCCCCCCC[N+](CCCCCCCC)(CCCCCCCC)CCCCCCCC [tetraoctylammonium oleate]
Settings	Glass transition temperature [°C]	Normal melting temperature [°C]	mass density [kg/m3]	viscosity [mPa·s]
–	-79.8	-29.5	–	–
293.15 K	–	–	878.4	1689.3
298.15 K	–	–	875.3	1153.4
303.15 K	–	–	872.3	804.8
308.15 K	–	–	869.2	575.4
313.15 K	–	–	866.1	420.8
318.15 K	–	–	863.1	314.4
323.15 K	–	–	860.1	239.4
328.15 K	–	–	857.1	185.4
333.15 K	–	–	854.1	146.2
338.15 K	–	–	851.1	117
343.15 K	–	–	848.2	94.9
348.15 K	–	–	845.2	77.9
353.15 K	–	–	842.2	64.1
358.15 K	–	–	839.2	53.5
363.15 K	–	–	836.1	44.3
